Assay results published in patent publication US20070098735A1, “Methods for the Elimination of Pathogens and Other Particulate Agents” (priority 2005, published 2007).

Experiments:
[1] = system: macrophage phagocytosis in wounded mice; assay: Inhibition of phagocytosis in vivo by gadolinium chloride, wound closure; settings: GdCl3 10 mg/kg IV day -1 and day 0; HSP70 30 μg/dose SC day 0
Experimental: Inhibition of Phagocytosis In vivo. Intravenous injection of gadolinium chloride inhibits phagocytosis of macrophages without affecting their viability or affecting other cell types. Mice were treated (on day minus-1 and day 0) with GdCl3 (10 mg/kg body weight in 200 μl of distilled water) administered intravenously via the retro-orbital venous plexus. Subsequently the mice were wounded as previously described (Day 0) and treated with PBS and HSP70 (30 μg/dose) given subcutaneously on day 0.
Treatment groups shown are (i) HSP70 alone; (ii) HSP70+GdCl3; (iii) PBS alone; and (iv) PBS+GdCl3. *P values were obtained using the Student's t-test by comparing the percent inhibition in wound closure of gadolinium chloride plus treatment to percent wound closure of the treatment alone.

[2] = system: Murine macrophage lines (RAW264.7, J774.A1 or RAW264NO-); assay: Phagocytosis assay in vitro (uptake of Alexa Fluor 488-labeled particles); format: cell-based; set-up: effect of LR-disrupting drugs on HSP70-mediated phagocytosis: dose or concentration left out as unconfirmed
Experimental: Phagocytosis Assay in vitro. RAW 264.7, RAW264.7 (NO-) and J774A.1 cells were cultured in DMEM or RPMI (RAW NO-) with 10% FCS, harvested, and washed. 3×10^5 cells/well were incubated in serum-free Earle's minimal essential medium (EMEM) in a 24-well plate for 1 hour at 37° C. Alexa Fluor® 488-labeled particles (inert polystyrene microspheres; or yeast, Saccharomyces cerevisiae or Gram-negative bacteria, Escherichia coli, 40 particles/macrophage) were added and co-incubated in a dark environment for 60 minutes in serum free EMEM with or without HSPs, LPS, or control proteins. At the end of 60 minutes incubation, the plate was covered in a dark container on ice. Specific measures were taken to exclude the fluorescence that resulted from particles that were outside of the cell or sticking to the surface of the cell. […] Specifically, trypan blue (0.8 mg/ml) was added for 60 seconds and plates were analyzed immediately using FluorImager SI (Molecular Dynamics/Amersham). Since the emission of Alexa Fluor® 488, about 519 nm at an excitation of about 490 nm, falls within the absorbance range of trypan blue (475-675 nm), the fluorescence of the sample only represents the intracellular fluorescence. External or surface-bound fluorescence is quenched. Using Student's t test, the results were analyzed and P-values were calculated.
HSP-mediated phagocytosis was quantified by measuring the internalized fluorescence measured by FluorImager SI and Relative Mean Fluorescence Intensity (RMFI) was compared between the treatment groups (as indicated). All the treatment groups were compared to medium alone using the Student's t test and significance denoted by P<0.01. The error bar represents one standard deviation. The results shown are a cumulative analysis of 3 experiments, 3 wells/group.

macrophages = assay: Trypan blue exclusion viability of treated macrophages; settings: MCD-treated cells
[3] = system: lipid raft (LR) microdomain of the macrophage plasma membrane; assay: Binding of exogenous HRP-labeled HSP70 to purified lipid raft fractions; set-up: species or system murine; settings: MCD (30 mM); HRP-labeled HSP70 100 μg/ml; Triton X-100
Experimental: Purification of lipid rafts. Lipid rafts were purified as DRMs (detergent resistant membrane) using non-ionic detergents following sucrose gradient centrifugation. […] After incubation, cells were washed 3× with PBS and lysed with 2 ml MES (4-morpholinoethanesulfonic acid) buffered saline (MBS; 150 mM NaCl, 20 mM MES, pH 6.5, […] and 5 mM iodoacetamide) containing 0.5% Triton X-100 or 1% for 30 minutes on ice or 7 minutes at 37° C. respectively. The cells were mixed with an equal volume of 90% sucrose in MEB buffer (150 mM NaCl, 20 mM MES [pH 6.5]) and placed at the bottom of the centrifuge tube. […] Fractions of 1 ml each were collected from the bottom of tube and each fraction was analyzed by SDS-PAGE and immunoblotting.
Briefly, RAW264.7 macrophages were treated with exogenous HRP-labeled HSP70 (100 μg/ml) or were left untreated for 60 minutes and washed with PBS three times to remove free HSPs. […] These fractions obtained (light: LR and heavy: non-LR) were then analyzed using immunoblotting to detect HRP activity of HSP70-HRP complexes or tested for the presence of an LR-associated ganglioside GM1 by using HRP-cholera toxin B. Similarly, these fractions were tested for the amount of cholesterol using (Biovision Research Products, CA). […]

Molecule | inhibition of the HSP70-mediated effects on wound healing [1] | dose dependence of inhibitory effect on macrophage response to HSP70 ([2]; MCD 0-30 mM, HSP70 100 μg/ml) | effect of LR-disrupting drugs on HSP70-mediated phagocytosis ([2]; nystatin or MCD, labeled yeast 40 particles/macrophage) | viability (trypan blue exclusion) (macrophages) [%] | effect on binding of exogenous HSP70 to lipid rafts [3]
[Cl][Gd]([Cl])[Cl] [GdCl3, gadolinium chloride] | up to 67% |  |  |  | 
methyl-β-cyclodextrin [MCD] |  | titratable | HSP70-mediated phagocytosis was inhibited | 95 | significant reduction in the binding of exogenously administered HSP70
